{"source": "patent US4386103A", "about": "“Dichloroamino acid derivatives useful as potent germicidal and fungicidal agents” (Merck & Co., Inc., priority 1981, dated 1983)", "key": {"[1]": {"test_system": "Gram-positive and Gram-negative organisms", "details": "cited from earlier work"}, "pseudomonas organisms": {"test_system": "pseudomonas organisms", "details": "cited from earlier work"}, "[2]": {"test": "Stability of chloroamino acids in pH 4 acetate buffer at 34° C.", "type": "physicochemical", "details": "for half-life: read-out: Stability (t1/2) (converted)", "from_the_text": "The effect of this distance on stability in aqueous medium is illustrated in the following table."}, "Aspergillus fumigatus": {"test_system": "Aspergillus fumigatus", "test": "Contact fungicidal screen, Aspergillus fumigatus", "type": "cell-based", "details": "0.1M NaOAc pH 4.6", "method": "(§1) The organisms used in the Contact Fungicidal Screen are a dermatophyte, trychophyton mentagrophytes, frequently associated with athlete's foot; a yeast, Candida albican, causative agent of thrush and vaginitis; a phycomycete, Rhizopus oryzae, commonly known as black bread mold; an ascomycete, Aspergillus fumagatis, found in chicken droppings and causing lung infections; and another dermatophyte, Microsporum canis, which causes ringworm. These organisms are maintained as stock cultures at 4° C. on agar […] of the following composition: dextrose 2%, Neopeptone (Difco) 1%, agar 2%. Fluid medium of the same nutrient composition (without agar) was used to test the viability of the organisms after exposure to the fungicide. This medium is also known as Sabouraud's medium. Sabouraud's agar plate cultures of Aspergillus fumigatus, Microsporum canis, and a different culture of Trychophyton mentagrophytes are prepared by planting an inoculum at the center of an agar plate and incubating at 25°-30° C. for seven to ten days. The mycelial mats are removed from the surface of the agar and prepared in the same manner as the Rhizopus culture. The compounds are weighed into heat sterilized 100 ml volumetric flasks and immediately before screening dissolved in 0.1 M NaOAc pH 4.6 buffer (test solutions). The Aspergillus, Candida, Microsporum and Rhizopus species are screened in a slightly different manner. Basically, the procedure for the Contact Germicidal Efficiency Screen is utilized. After the test solutions are made up, 5 ml aliquots are pipetted into heat sterilized 25 ml glass stoppered erlenmeyer flasks. The screen is initiated when 0.5 ml of the 5×10^6 cell (spore) per ml suspension is added to the flask containing 5 ml of the test solution. […] The subculture tubes are incubated at 25°-30° C. for ten days with daily observation for mycelial growth. The earliest subculture time at which no growth is present is considered the endpoint and is recorded as the sterilization time. To insure the viability of the culture, a 0.5 ml aliquot of the 5×10^6 cells (spores) per ml suspension is transferred to 5 ml of the pH 4.6 buffer. A loopful of the inoculated buffer is then subcultured to 7 ml of fluid Sabouraud's medium and incubated at 25°-30° C. for ten days. To insure that the dilution of the test solution into the subculture medium does stop the action, a loopful of the test solution and a loopful of the inoculated buffer are transferred into the same subculture tube. This tube is also incubated at 25°-30° C. for ten days."}, "Candida albican": {"test_system": "Candida albican", "test": "Contact fungicidal screen, Candida albican", "type": "cell-based", "details": "0.1M NaOAc pH 4.6", "method": "(§2) The organisms used in the Contact Fungicidal Screen are a dermatophyte, trychophyton mentagrophytes, frequently associated with athlete's foot; a yeast, Candida albican, causative agent of thrush and vaginitis; a phycomycete, Rhizopus oryzae, commonly known as black bread mold; an ascomycete, Aspergillus fumagatis, found in chicken droppings and causing lung infections; and another dermatophyte, Microsporum canis, which causes ringworm. These organisms are maintained as stock cultures at 4° C. on agar slants of the following composition: dextrose 2%, Neopeptone (Difco) 1%, agar 2%. Fluid medium of the same nutrient composition (without agar) was used to test the viability of the organisms after exposure to the fungicide. This medium is also known as Sabouraud's medium.\nThe Candida albican is grown in Sabouraud's liquid medium at 25°-30° C. for three days. At the end of the incubation period the cell suspension is centrifuged at 200 G and washed with sterile physiological saline (0.85% NaCl). The density of the cell suspension is determined by counting in a hemacytometer. The suspension is stored a 4° C. until it is used, at which time it is diluted with sterile physiological saline to a density of 5×10^6 cells per ml.\n(§3) The compounds are weighed into heat sterilized 100 ml volumetric flasks and immediately before screening dissolved in 0.1 M NaOAc pH 4.6 buffer (test solutions).\n(§4) The Aspergillus, Candida, Microsporum and Rhizopus species are screened in a slightly different manner. Basically, the procedure for the Contact Germicidal Efficiency Screen is utilized. After the test solutions are made up, 5 ml aliquots are pipetted into heat sterilized 25 ml glass stoppered erlenmeyer flasks. The screen is initiated when 0.5 ml of the 5×10^6 cell (spore) per ml suspension is added to the flask containing 5 ml of the test solution. At intervals of 0.5, 2.5, 5.0, 10.0 and 15.0 minutes, a 4 mm loopful of the inoculated test solution is subcultured into 7 mL of sterile fluid Sabouraud's medium and mixed on a vortex, the high dilution serving to stop the action of the compound. The subculture tubes are incubated at 25°-30° C. for ten days with daily observation for mycelial growth. The earliest subculture time at which no growth is present is considered the endpoint and is recorded as the sterilization time.\n(§5) To insure the viability of the culture, a 0.5 ml aliquot of the 5×10^6 cells (spores) per ml suspension is transferred to 5 ml of the pH 4.6 buffer. A loopful of the inoculated buffer is then subcultured to 7 ml of fluid Sabouraud's medium and incubated at 25°-30° C. for ten days. To insure that the dilution of the test solution into the subculture medium does stop the action, a loopful of the test solution and a loopful of the inoculated buffer are transferred into the same subculture tube. This tube is also incubated at 25°-30° C. for ten days."}, "Microsporum canis": {"test_system": "Microsporum canis", "test": "Contact fungicidal screen, Microsporum canis", "type": "cell-based", "details": "0.1M NaOAc pH 4.6", "method": "as §1"}, "Rhizopus oryzae": {"test_system": "Rhizopus oryzae", "test": "Contact fungicidal screen, Rhizopus oryzae", "type": "cell-based", "details": "0.1M NaOAc pH 4.6", "method": "as §2\n[…]. The mycelial mat is removed from the surface of the agar using a sterile spatula. It is transferred to a heat sterilized glass tissue grinder and macerated with 25 ml of sterile physiological saline. The suspension is then filtered through sterile glass wool. The density of the sporangia spore suspension is determined by counting in a hemacytometer. The suspension is stored at 4° C. until it was used, at which time it was diluted with sterile physiological saline to a density of 5×10^6 spores per ml.\nas §3, §4, §5"}, "[3]": {"details": "animal tests; cited from earlier work"}, "Gram-negative organisms": {"test_system": "Gram-negative organisms", "details": "cited from earlier work"}}}
{"smiles": "[H]/N=C(\\N/C(=N/[H])NCCCCCCNC(=N)NC(=N)Nc1ccc(Cl)cc1)Nc1ccc(Cl)cc1", "note": "[Chlorhexidine]", "values": [{"measurement": "activity against Gram-positive and Gram-negative organisms", "setting": "[1]", "value": "generally effective against Gram-positive and Gram-negative oganisms"}, {"measurement": "activity against pseudomonas organisms", "setting": "pseudomonas organisms", "value": "not effective against pseudomonas organisms"}]}
{"smiles": "CC(C)(COC(=O)CCC(=O)O)N(Cl)Cl", "note": "[drawing 17]", "values": [{"measurement": "half-life", "setting": "[2]", "value": 300, "unit": "days"}]}
{"smiles": "CC(C)(CCCCC(=O)O)N(Cl)Cl", "note": "[(VI), 6-Dichloroamino-6-methyl-heptanoic acid]", "values": [{"measurement": "Sterilization Time", "setting": "Aspergillus fumigatus; 10 PPM", "value": 15, "unit": "min"}, {"measurement": "Sterilization Time", "setting": "Aspergillus fumigatus; 100 PPM", "value": 15, "unit": "min"}, {"measurement": "Sterilization Time", "setting": "Aspergillus fumigatus; 1000 PPM", "value": 5.0, "unit": "min"}, {"measurement": "Sterilization Time", "setting": "Candida albican; 10 PPM", "value": 15, "unit": "min"}, {"measurement": "Sterilization Time", "setting": "Candida albican; 100 PPM", "value": 2.5, "unit": "min"}, {"measurement": "Sterilization Time", "setting": "Candida albican; 1000 PPM", "value": 0.5, "unit": "min"}, {"measurement": "Sterilization Time", "setting": "Microsporum canis; 10 PPM", "value": 10.0, "unit": "min"}, {"measurement": "Sterilization Time", "setting": "Microsporum canis; 100 PPM", "value": 2.5, "unit": "min"}, {"measurement": "Sterilization Time", "setting": "Microsporum canis; 1000 PPM", "value": 0.5, "unit": "min"}, {"measurement": "Sterilization Time", "setting": "Rhizopus oryzae; 10 PPM", "value": 15, "unit": "min"}, {"measurement": "Sterilization Time", "setting": "Rhizopus oryzae; 100 PPM", "value": 15, "unit": "min"}, {"measurement": "Sterilization Time", "setting": "Rhizopus oryzae; 1000 PPM", "value": 15, "unit": "min"}]}
{"smiles": "CC(C)(C(=O)O)N(Cl)Cl", "note": "[Z = nothing]", "values": [{"measurement": "Stability (in words)", "setting": "[2]", "value": "violent decomposition"}]}
{"smiles": "CC(C)(CC(=O)O)N(Cl)Cl", "note": "[Z = CH2]", "values": [{"measurement": "half-life", "setting": "[2]", "value": 1.21, "unit": "days"}]}
{"smiles": "Oc1c(Cl)cc(Cl)c(Cl)c1Cc1c(O)c(Cl)cc(Cl)c1Cl", "note": "[Hexachlorophene]", "values": [{"measurement": "neurotoxicity", "setting": "[3]", "value": "caused neurotoxicity"}, {"measurement": "activity against Gram-negative organisms", "setting": "Gram-negative organisms", "value": "ineffective against Gram-negative organisms"}]}
{"smiles": "CC(C)(CCC(=O)O)N(Cl)Cl", "note": "[Z = CH2 CH2]", "values": [{"measurement": "half-life", "setting": "[2]", "value": 57, "unit": "days"}]}
